These results are taken from ChEMBL document CHEMBL1123682, “5-Amino-4-(diazoacetyl)-1-beta-D-ribofuranosylimidazole, a new antileukemic agent” (J Med Chem, 1987).

A value given as a limit tells only on which side of the number the result lay.

In assay [1] the test system is L1210. Put plainly: Ability to inhibit growth of L1210 cells in culture was determined. The assay is classed as functional, cell-based. As to conditions: Mus musculus, read-out: I50.
In assay [2] the test system is HEp-2. Put plainly: Ability to inhibit growth of human epithelial (H.Ep.-2) cells in culture. Type of assay: functional, cell-based. As to conditions: read-out: I50.

In the case of `CC(=O)c1ncn([C@@H]2O[C@H](CO)[C@@H](O)[C@H]2O)c1N`, the IC50 in assay [1] was above 120000 nM.
Take `[N-]=[N+]=CC(=O)C1=NNC([C@@H]2O[C@H](CO)[C@@H](O)[C@H]2O)C1=N` (stereo partly drawn): the values for the IC50 in assay [2] and in assay [1] were 2000 nM and 3000 nM, respectively.
